Here are results for 35 compounds from US10975084B2, “KDM5 inhibitors” (Merck Sharp & Dohme Corp., priority 2016, dated 2021).

The structures appear in SMILES notation.

Sequence of KDM5B (Q9UGL1 whole entry): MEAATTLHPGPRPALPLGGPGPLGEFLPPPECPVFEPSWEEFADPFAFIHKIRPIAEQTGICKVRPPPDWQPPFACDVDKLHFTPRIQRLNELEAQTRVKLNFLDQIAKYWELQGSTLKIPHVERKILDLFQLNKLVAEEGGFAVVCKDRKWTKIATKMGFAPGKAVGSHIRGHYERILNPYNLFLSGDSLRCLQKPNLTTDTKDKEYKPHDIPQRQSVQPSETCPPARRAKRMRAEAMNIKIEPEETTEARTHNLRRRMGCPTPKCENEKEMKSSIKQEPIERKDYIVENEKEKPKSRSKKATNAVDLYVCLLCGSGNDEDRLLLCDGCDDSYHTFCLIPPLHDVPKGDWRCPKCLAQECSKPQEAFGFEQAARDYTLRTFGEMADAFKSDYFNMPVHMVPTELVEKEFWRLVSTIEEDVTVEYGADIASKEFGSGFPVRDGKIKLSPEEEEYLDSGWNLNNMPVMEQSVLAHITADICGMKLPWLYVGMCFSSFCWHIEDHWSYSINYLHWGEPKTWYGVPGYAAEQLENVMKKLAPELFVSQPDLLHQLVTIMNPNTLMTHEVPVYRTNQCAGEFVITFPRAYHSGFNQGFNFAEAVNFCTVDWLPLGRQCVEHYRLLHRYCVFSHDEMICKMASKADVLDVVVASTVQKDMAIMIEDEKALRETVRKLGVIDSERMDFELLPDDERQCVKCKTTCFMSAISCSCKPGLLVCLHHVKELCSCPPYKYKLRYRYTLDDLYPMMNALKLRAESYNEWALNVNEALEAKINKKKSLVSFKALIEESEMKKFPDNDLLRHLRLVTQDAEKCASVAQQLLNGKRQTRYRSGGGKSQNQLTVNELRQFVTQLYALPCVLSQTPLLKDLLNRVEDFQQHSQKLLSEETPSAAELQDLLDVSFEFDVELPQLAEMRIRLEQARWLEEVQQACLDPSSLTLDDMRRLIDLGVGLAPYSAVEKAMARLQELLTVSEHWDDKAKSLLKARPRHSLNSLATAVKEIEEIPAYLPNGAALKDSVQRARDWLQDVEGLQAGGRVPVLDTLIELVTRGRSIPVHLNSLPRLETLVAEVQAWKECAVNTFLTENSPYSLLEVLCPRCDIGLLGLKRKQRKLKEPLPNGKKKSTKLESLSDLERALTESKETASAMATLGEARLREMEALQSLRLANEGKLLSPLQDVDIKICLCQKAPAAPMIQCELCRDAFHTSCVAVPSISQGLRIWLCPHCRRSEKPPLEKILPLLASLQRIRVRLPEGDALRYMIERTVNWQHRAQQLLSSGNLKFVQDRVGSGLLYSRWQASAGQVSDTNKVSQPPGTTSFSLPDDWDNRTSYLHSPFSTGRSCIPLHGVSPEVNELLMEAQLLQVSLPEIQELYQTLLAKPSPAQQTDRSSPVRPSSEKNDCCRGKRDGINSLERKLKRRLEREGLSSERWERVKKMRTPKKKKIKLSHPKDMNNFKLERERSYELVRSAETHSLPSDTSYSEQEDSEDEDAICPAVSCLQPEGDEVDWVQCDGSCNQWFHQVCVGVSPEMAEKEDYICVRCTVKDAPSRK

For the experiment, the target named is KDM5B (Homo sapiens (Human), UniProt Q9UGL1). Briefly: KDM5B TR-FRET Enzyme Activity Assay. In kind it is biochemical. As to conditions: LANCE TR-FRET; 5 nM full-length recombinant KDM5B; ten point titration 100000 nM to 5.08 nM. As to the method:
KDM5B TR-FRET Enzyme Activity Assay
KDM5B enzymatic activity was determined with the LANCE (Lanthanide Chelate Excite) TR-FRET (Time-resolved fluorescence resonance energy transfer) assay. […] To each well of a white Greiner 1536 Lumitrac 1536 well-plate, 50 nL of compound (100 fold dilution in final assay volume of 5 μL) was dispensed, followed by the addition of 4 μL of 1× assay buffer (50 mM Hepes 7.3, 0.5 mM TCEP, 0.005% Brij-35, 0.02% BSA, 50 μM Na-L-Ascorbate and 2 μM AmFe(II)Sulfate) containing 5 nM of Full-length KDM5B enzyme (recombinant protein from baculovirus-transfected Sf21 cells: full-length KDM5B; MW=176.825 kDa). Following a 30 minutes compound and enzyme incubation in a humidified chamber, each reaction was initiated by the addition of 1 μL 1× assay buffer containing […] biotinylated H3K4Me3 peptide, and 500 nM α-ketoglutarate. The final reaction in each well of 5 μL consists of 5 nM KDM5B, 500 nM biotinylated-peptide, and 500 nM α-ketoglutarate. De-methylation reactions were allowed to proceed for 60 minutes. Reactions were immediately quenched by the addition of 5 uL of 2× Lance Detection Buffer (PerkinElmer) with 0.5 mM EDTA and 2 nM of Eu-anti-H3K4Me1-2 antibody, and 30 nM of Streptavidin-conjugated Dylight 650 detection reagents. After 60 minutes incubation with detection reagents, reaction plates were read on a PerkinElmer EnVision plate reader using standard TR-FRET protocol. Briefly, excitation of donor molecules (Eu-chelate-anti-H3K4Me1-2-antibody) with a laser light source at 337 nm produces energy that can be transferred to Dylight-650 acceptor molecules if this donor:acceptor pair is within close proximity. Fluorescence intensity at both 665 nm (acceptor) and 615 nm (donor) are measured and a TR-FRET ratio calculated for each well (acceptor intensity/donor intensity). IC50 values were determined by 4 parameter robust fit of TR-FRET ratio values vs. (Log 10) compound concentrations.
(In general: TR-FRET usually uses a lanthanide donor and a delayed reading to cut background.)
The IC50 is the concentration at which inhibition is half-maximal. Consider `CCOC(=O)Cc1ccc(-c2[nH]c3ncnn3c(=O)c2C(C)C)cc1` [Example 11-45, ethyl {4-[6-(1-methylethyl)-7-oxo-4,7-dihydro[1,2,4]triazolo[1,5-a]pyrimidin-5-yl]phenyl}acetate], for which the IC50 was determined as 17.4 nM.

`CC(C)c1c(-c2ccc(-c3nccn3C)cc2)[nH]c2ncnn2c1=O` [Example 11-90, 6-(1-methylethyl)-5-[4-(1-methyl-1H-imidazol-2-yl)phenyl][1,2,4]triazolo[1,5-a]pyrimidin-7(4H)-one]: the IC50 amounted to 7.26 nM.

Regarding `CCc1[nH]c2ncnn2c(=O)c1C` [Example 8-18, 5-ethyl-6-methyl[1,2,4]triazolo[1,5-a]pyrimidin-7(4H)-one], the IC50 stood at 31900 nM.

On to `Cc1csc(-c2[nH]c3ncnn3c(=O)c2C(C)C)c1` [Example 11-115, 6-(1-methylethyl)-5-(4-methylthiophen-2-yl)[1,2,4]triazolo[1,5-a]pyrimidin-7(4H)-one], for which the IC50 is 122 nM.

For `CC(C)c1c(-c2cn[nH]c2)[nH]c2ncnn2c1=O` [Example 11-122, 6-(1-methylethyl)-5-(1H-pyrazol-4-yl)[1,2,4]triazolo[1,5-a]pyrimidin-7(4H)-one], the IC50 amounted to 13.3 nM.

In the case of `CC(C)(C)n1cc(-c2[nH]c3ncnn3c(=O)c2CC(F)(F)F)cn1` [Example 8-39, 5-(1-tert-butyl-1H-pyrazol-4-yl)-6-(2,2,2-trifluoroethyl)[1,2,4]triazolo[1,5-a]pyrimidin-7(4H)-one], the IC50 was found to be 87.1 nM.

For `CC(C)c1c(-c2ccc(N3CCN(C)CC3)cc2)[nH]c2ncnn2c1=O` [Example 11-106, 6-(1-methylethyl)-5-[4-(4-methylpiperazin-1-yl)phenyl][1,2,4]triazolo[1,5-a]pyrimidin-7(4H)-one], the IC50 was found to be 16.6 nM.

For `O=c1cc(-c2ccc(Cl)cc2)[nH]c2ncnn12` [Example 8-26, 5-(4-chlorophenyl)[1,2,4]triazolo[1,5-a]pyrimidin-7(4H)-one], the IC50 is 1390 nM.

For `CC(C)c1c(-c2ccsc2)[nH]c2ncnn2c1=O` [Example 11-138, 6-(1-methylethyl)-5-thiophen-3-yl[1,2,4]triazolo[1,5-a]pyrimidin-7(4H)-one], the IC50 came out at 657 nM.

`CC(C)c1c(-c2cnn(CC3(F)CCCC3)c2)[nH]c2ncnn2c1=O` [Example 11-13, 5-{1-[(1-fluorocyclopentyl)methyl]-1H-pyrazol-4-yl}-6-(1-methylethyl)[1,2,4]triazolo[1,5-a]pyrimidin-7(4H)-one]: the IC50 was 5.08 nM.

Take `CC(C)c1c(-c2coc(-c3ccc(F)cc3)n2)[nH]c2ncnn2c1=O` [Example 11-43, 5-[2-(4-fluorophenyl)-1,3-oxazol-4-yl]-6-(1-methylethyl)[1,2,4]triazolo[1,5-a]pyrimidin-7(4H)-one]: the IC50 turned out to be 23.8 nM.

On to `CC(C)c1c(-c2cnc3ccccc3c2)[nH]c2ncnn2c1=O` [Example 11-76, 6-(1-methylethyl)-5-quinolin-3-yl[1,2,4]triazolo[1,5-a]pyrimidin-7(4H)-one], for which the IC50 came to 23.8 nM.

With `CNc1ccc(-c2[nH]c3ncnn3c(=O)c2C(C)C)cc1` [Example 11-104, 5-[4-(methylamino)phenyl]-6-(1-methylethyl)[1,2,4]triazolo[1,5-a]pyrimidin-7(4H)-one], the IC50 was 43.8 nM.

With `Cc1[nH]ncc1-c1[nH]c2ncnn2c(=O)c1C(C)C` [Example 11-28, 6-(1-methylethyl)-5-(5-methyl-1H-pyrazol-4-yl)[1,2,4]triazolo[1,5-a]pyrimidin-7(4H)-one], the IC50 came to 155 nM.

Regarding `CC(C)c1c(-c2ccc(CN3CCOCC3)s2)[nH]c2ncnn2c1=O` [Example 11-108, 6-(1-methylethyl)-5-[5-(morpholin-4-ylmethyl)thiophen-2-yl][1,2,4]triazolo[1,5-a]pyrimidin-7(4H)-one], the IC50 stood at 5.08 nM.

As to `CC(C)c1c(-c2ccc(N3CCCCC3)cc2)[nH]c2ncnn2c1=O` [Example 11-41, 6-(1-methylethyl)-5-(4-piperidin-1-ylphenyl)[1,2,4]triazolo[1,5-a]pyrimidin-7(4H)-one], the IC50 came to 11.8 nM.

On to `CC(C)c1c(-c2ccc(Cl)cc2)[nH]c2ncnn2c1=O` [Example 11-63, 5-(4-chlorophenyl)-6-(1-methylethyl)[1,2,4]triazolo[1,5-a]pyrimidin-7(4H)-one], for which the IC50 turned out to be 71.5 nM.

Turning to `CC(C)c1c(-c2cnn(C3CCC3)c2)[nH]c2ncnn2c1=O` [Example 11-109, 5-(1-cyclobutyl-1H-pyrazol-4-yl)-6-(1-methylethyl)[1,2,4]triazolo[1,5-a]pyrimidin-7(4H)-one], the IC50 is 5.08 nM.

Regarding `COC(=O)Cc1c(C)[nH]c2ncnn2c1=O` [Example 8-7, methyl (5-methyl-7-oxo-4,7-dihydro[1,2,4]triazolo[1,5-a]pyrimidin-6-yl)acetate], the IC50 came to 21300 nM.

On to `CC(C)c1c(-c2ccc3c(c2)CC(=O)N3)[nH]c2ncnn2c1=O` [Example 11-123, 6-(1-methylethyl)-5-(2-oxo-2,3-dihydro-1H-indol-5-yl)[1,2,4]triazolo[1,5-a]pyrimidin-7(4H)-one], for which the half-inhibitory concentration (IC50) was 6.93 nM.

As to `CC(C)c1c(-c2ccc(-n3cccn3)cc2F)[nH]c2ncnn2c1=O` [Example 11-98, 5-[2-fluoro-4-(1H-pyrazol-1-yl)phenyl]-6-(1-methylethyl)[1,2,4]triazolo[1,5-a]pyrimidin-7(4H)-one], the IC50 was found to be 122 nM.

On to `CC(C)c1c(-c2cccc(N3CCOCC3)c2)[nH]c2ncnn2c1=O` [Example 11-44, 6-(1-methylethyl)-5-(3-morpholin-4-ylphenyl)[1,2,4]triazolo[1,5-a]pyrimidin-7(4H)-one], for which the IC50 stood at 46.3 nM.

Turning to `COCCn1cc(-c2[nH]c3ncnn3c(=O)c2C(C)C)cn1` [Example 11-16, 5-[1-(2-methoxyethyl)-1H-pyrazol-4-yl]-6-(1-methylethyl)[1,2,4]triazolo[1,5-a]pyrimidin-7(4H)-one], the IC50 turned out to be 5.73 nM.

Take `CCCc1[nH]c2ncnn2c(=O)c1-c1ccccc1` [Example 8-32, 6-phenyl-5-propyl[1,2,4]triazolo[1,5-a]pyrimidin-7(4H)-one]: the IC50 turned out to be 37600 nM.

Turning to `O=c1cc(-c2ccc(F)cc2)[nH]c2ncnn12` [Example 8-8, 5-(4-fluorophenyl)[1,2,4]triazolo[1,5-a]pyrimidin-7(4H)-one], the IC50 is 1300 nM.

In the case of `CC(C)c1c(-c2ccc(N)c(F)c2)[nH]c2ncnn2c1=O` [Example 11-119, 5-(4-amino-3-fluorophenyl)-6-(1-methylethyl)[1,2,4]triazolo[1,5-a]pyrimidin-7(4H)-one], the IC50 worked out at 27.5 nM.

For `CCc1c(C)[nH]c2ncnn2c1=O` [Example 8-36, 6-ethyl-5-methyl-[1,2,4]triazolo[1,5-a]pyrimidin-7(4H)-one], the IC50 was 3490 nM.

In the case of `C=C(CCC)c1[nH]c2ncnn2c(=O)c1C(C)C` [Example 11-22, 6-(1-methylethyl)-5-(1-methylidene-butyl)[1,2,4]triazolo[1,5-a]pyrimidin-7(4H)-one], the IC50 was 808 nM.

Turning to `CC(C)c1c(-c2ccc3ncn(C4CC4)c3c2)[nH]c2ncnn2c1=O` [Example 11-89, 5-(1-cyclopropyl-1H-benzimidazol-6-yl)-6-(1-methylethyl)[1,2,4]triazolo[1,5-a]pyrimidin-7(4H)-one], the IC50 amounted to 21.3 nM.

With `CC(C)c1c(-c2cnn(Cc3ccccc3)c2)[nH]c2ncnn2c1=O` [Example 11-9, 5-(1-benzyl-1H-pyrazol-4-yl)-6-(1-methylethyl)[1,2,4]triazolo[1,5-a]pyrimidin-7(4H)-one], the IC50 stood at 7.3 nM.

On to `CC(C)c1c(-c2ccc(-n3cccn3)cc2)[nH]c2ncnn2c1=O` [Example 11-82, 6-(1-methylethyl)-5-[4-(1H-pyrazol-1-yl)phenyl][1,2,4]triazolo[1,5-a]pyrimidin-7(4H)-one], for which the half-inhibitory concentration (IC50) stood at 8.78 nM.

In the case of `CC(C)c1c(-c2cccc(F)c2)[nH]c2ncnn2c1=O` [Example 11-33, 5-(3-fluorophenyl)-6-(1-methylethyl)[1,2,4]triazolo[1,5-a]pyrimidin-7(4H)-one], the IC50 turned out to be 136 nM.

Turning to `CC(C)c1c(-c2csc(-n3cccn3)n2)[nH]c2ncnn2c1=O` [Example 11-137, 6-(1-methylethyl)-5-[2-(1H-pyrazol-1-yl)-1,3-thiazol-4-yl][1,2,4]triazolo[1,5-a]pyrimidin-7(4H)-one], the IC50 was found to be 41.9 nM.

On to `CC(C)c1c(-c2ccnn2Cc2ccccc2)[nH]c2ncnn2c1=O` [Example 11-91, 5-(1-benzyl-1H-pyrazol-5-yl)-6-(1-methylethyl)[1,2,4]triazolo[1,5-a]pyrimidin-7(4H)-one], for which the IC50 came to 634 nM.

Take `CC(C)c1c(-c2ccc(C(O)C(F)(F)F)cc2)[nH]c2ncnn2c1=O` (centres unmarked) [Example 11-50, 6-(1-methylethyl)-5-[4-(2,2,2-trifluoro-1-hydroxyethyl)-phenyl][1,2,4]triazolo[1,5-a]pyrimidin-7(4H)-one]: the IC50 stood at 20.1 nM.
